Results as given in ChEMBL document CHEMBL5604062, “ASAP - ZIKV NS2B-NS3 protease fluorescence dose response” (2024).
Where “and” joins values, the source holds several entries; their conditions need not be identical. Equal values may be shown once.

Biological target: Nonstructural protein 3 (Zika virus, UniProt A0A024AXB9)
Assay: Functional biochemical assay to identify treatments for viral infectious disease that targets Zika NS2B-NS3 protease. Utilizing a direct enzyme activity measurement method, reading the fluorescence intensity is used to characterize the relative potency of inhibitors as IC50.
Set-up: species or system PRVABC59

Sequence of Nonstructural protein 3 (A0A024AXB9 whole entry): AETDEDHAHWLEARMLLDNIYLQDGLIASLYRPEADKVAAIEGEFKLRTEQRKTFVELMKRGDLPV

Row | SMILES | IC50
1 | O=C(N[C@@H](C(=O)NCC1CCNCC1)c1ccc(OCc2ccccc2)cc1)OCc1ccccc1 | > 99.5 µM
2 | CCn1cc(-c2ccccc2C(C)C)nc(N2CC[C@@H](CO)C2)c1=O | > 99.5 µM
3 | C[C@@H](NC(=O)c1cc(Cl)ccc1NS(=O)(=O)c1ccc(Oc2ccccc2Cl)cc1)C(=O)O | > 99.5 µM
4 | Cc1c(C(=O)Nc2cccc(CN)c2)cc(C(C)C)n1C | > 99.5 µM
5 | CCc1nc(C(=O)Nc2cccc(CN)c2)nn1-c1c(Cl)cccc1Cl | > 99.5 µM
6 | Clc1ccc2[nH]cc(Cc3ccc(-c4nn[nH]n4)cc3)c2c1 | > 99.5 µM
7 | CN(C)C(=O)Nc1cccc([C@@H]2C[C@H]2c2cc(Cl)cc(NC(=O)OCc3ccccc3)c2)c1 | > 99.5 µM
8 | NCc1cccc(NC(=O)[C@@H](NC(=O)OCc2ccccc2)C(C2CCC2)C2CCC2)c1 | 66.3 µM and 82.1 µM
9 | NCc1cccc(NC(=O)c2cc(C(F)(F)F)nn2CC2CCC2)c1 | > 99.5 µM
10 | CCn1ccnc(N2CC[C@H](C#N)C2)c1=O | > 99.5 µM
11 | C[C@@H](NC(=O)c1cc(Cl)ccc1NS(=O)(=O)c1ccc(Oc2ccccc2Cl)cc1)[C@H]1CCCO1 | > 99.5 µM
12 | O=C(O)c1cc(Cl)ccc1NS(=O)(=O)c1ccc(OCc2ccncc2)cc1 | > 99.5 µM
13 | Cc1c(C(=O)Nc2cc(C(=O)N3CCNC(=O)C3)ccn2)cc(C2CC2)n1C | > 25 µM
14 | CN(CCS(N)(=O)=O)C(=O)c1cc(Cl)ccc1NS(=O)(=O)c1ccc(Oc2ccccc2Cl)cc1 | > 99.5 µM
15 | O=C1Cc2ccc(NC(=O)c3cc(F)cc4[nH]ncc34)cc2N1 | > 25 µM
16 | CCc1ccc(-c2cn(CC)c(=O)c(N3CC[C@@H](CO)C3)n2)s1 | > 99.5 µM
17 | O=S(=O)(c1ccc(Oc2ccccc2Cl)cc1)n1ccc2cc(Cl)ccc21 | > 99.5 µM
18 | Cc1c(C(=O)Nc2cc(C(=O)N(C)C)ccn2)cc(C2CC2)n1C | > 99.5 µM
19 | NCc1nccc(NC(=O)c2cc(Cl)cc(NC(=O)OCc3ccccc3)c2)n1 | > 99.5 µM
20 | c1cc(CN2CCC(c3c[nH]c4cccnc34)CC2)c2cn[nH]c2c1 | > 99.5 µM
21 | O=C(Nc1cc([C@H]2CCOC2)ccn1)c1cc(Cl)cc2c1CCC2 | > 25 µM
22 | Cc1cccnc1COc1ccc(S(=O)(=O)Nc2ccc(Cl)cc2C(=O)O)cc1 | > 99.5 µM
23 | COc1cc(C(=O)Nc2cccc(CN)c2)cc2cn(C)nc12 | > 99.5 µM
24 | CCn1cc(C(=O)NCc2ccccc2)nc(N2CC[C@@H](CO)C2)c1=O | > 99.5 µM
25 | c1cc(CN2CCC(c3cscn3)CC2)[nH]n1 | > 99.5 µM

Row | SMILES | IC50
26 | Cc1c(C(=O)Nc2ccc([C@@H](C)N)cc2)cc(C2CC2)n1C | > 99.5 µM
27 | CS(=O)(=O)Nc1cccc(NC(=O)c2cc(Cl)cc(NC(=O)OCc3ccccc3)c2)c1 | > 99.5 µM
28 | c1ccc([C@H](NCc2c[nH]c3ccccc23)c2cccnc2)cc1 | > 99.5 µM
29 | CN(C)Cc1ccccc1CNC(=O)[C@@H](NC(=O)OCc1ccccc1)c1ccc(OCc2ccccc2)cc1 | > 99.5 µM
30 | CCn1c(=O)c(N2CC[C@H](CO)C2)nc2ccc(C(=O)N(C)C)cc21 | > 99.5 µM
31 | CC(=O)Nc1cccc(C(=O)Nc2ccc3c(c2)CNC3)n1 | > 25 µM
32 | NCc1cccc(NC(=O)[C@@H](NC(=O)OCc2ccccc2)C2CCN(C3CCOCC3)CC2)c1 | > 99.5 µM
33 | NCc1cccc(S(=O)(=O)Nc2cc(Cl)cc(NC(=O)OCc3ccccc3)c2)c1 | > 99.5 µM
34 | Cc1c(C(=O)Nc2cc(-c3cccnc3)ccn2)cc(-c2ccccc2)n1C | > 25 µM
35 | O=C(Nc1cc(-c2cccnc2)ccn1)c1cc(C2CC2)[nH]n1 | > 25 µM
36 | O=C1Cc2c(cccc2C(=O)Nc2cc3c(cn2)OCCO3)N1 | > 25 µM
37 | COCCN(C)C(=O)Cn1ccnc(N2CC[C@@H](CO)C2)c1=O | > 99.5 µM
38 | O=C(O)[C@@H]1CC2(CC[C@@H]1NS(=O)(=O)c1ccc(Oc3ccccc3Cl)cc1)CC2 | > 99.5 µM
39 | O=C(Nc1cc2c(cc1C1CC1)CNC2)c1cc(F)cc2[nH]ncc12 | 0.092 µM and 0.046 µM
40 | CNC(=O)[C@H](Nc1cncc(C(=O)O)c1)c1cc(Cl)cc(C2CC2)c1 | > 99.5 µM
41 | Cc1ccc2[nH]ncc2c1C(=O)Nc1ccc2c(c1)CNC2 | > 25 µM
42 | NCc1cccc(NC(=O)[C@H](NC(=O)OCc2ccccc2)C(C2CCC2)C2CCC2)c1 | > 99.5 µM
43 | CCn1c(=O)c(N2CCC[C@@H]2Cc2cccs2)nc2ccccc21 | > 99.5 µM
44 | Cc1c(C(=O)Nc2cc(CCCN)ccn2)cc(C2CCCCC2)n1C | > 99.5 µM
45 | NCc1ccc(NC(=O)[C@@H](NC(=O)OCc2ccccc2)c2ccc(OCc3ccccc3)cc2)cc1 | > 99.5 µM
46 | COc1ccc(F)cc1-c1ccc(S(=O)(=O)Nc2cc(Cl)cc(C(=O)O)c2)cc1 | > 99.5 µM
47 | CCn1ccnc(N[C@@H](Cc2c[nH]c3ccccc23)C(N)=O)c1=O | > 99.5 µM
48 | C[C@H]1Oc2ccc(NC(=O)c3cc(Cl)cc(NC(=O)OCc4ccccc4)c3)cc2NC1=O | > 99.5 µM
49 | CNc1c(-c2cc(Cl)cc(C3CC3)c2)nc2cc(C(=O)O)ccn12 | > 99.5 µM

The remaining lines, values ahead:

Row | IC50 | SMILES
50 | 0.144 µM | O=C(Nc1ccc2c(c1)CNC2)c1cc(Cl)cc2[nH]c(CCc3cccnc3)nc12
51 | 6.42 µM | NCc1cccc(NC(=O)[C@@H](NC(=O)OCc2ccccc2)c2ccc(-c3cccc4nonc34)cc2)c1
52 | 0.137 µM | CC1=C(c2cc(NC(=O)c3cc(Cl)cc4[nH]ncc34)cc3c2CNC3)CCC1=O
53 | > 25 µM | CC(C)n1cc(C(=O)Nc2cc(-c3cccnc3)ccn2)c2ccccc21
54 | 2.81 µM | O=C(Nc1ccc2c(c1)CNC2)c1cccc2[nH]cnc12
55 | 81.2 µM | NC[C@H]1CC[C@H](NC(=O)[C@@H](NC(=O)OCc2ccccc2)c2ccc(OCc3ccccc3)cc2)CC1
56 | 97.2 µM | Cc1c(C(=O)O)sc2ncc(Cc3c[nH]c4ccc(Cl)cc34)cc12
57 | 24.6 µM | c1cc(C2CCN(Cc3c[nH]c4ccccc34)CC2)c2ccncc2c1
58 | 0.216 µM | O=C(Nc1ccc2c(c1)CNC2)c1cc(Cl)cc(C2CC2)c1
59 | > 25 µM | Cc1c(C(=O)Nc2cc(-c3cccnc3)ccn2)cc(CC(C)(C)C)n1C
60 | 22.4 µM | O=C(Nc1ccc2c(c1)CNC2)c1n[nH]c(=O)c2ccccc12
61 | 72.4 µM | CN1Cc2ccc(CNC(=O)[C@@H](NC(=O)OCc3ccccc3)c3ccc(OCc4ccccc4)cc3)cc2C1
62 | 77.5 µM | CS(=O)(=O)c1ccc(-c2ccc(S(=O)(=O)Nc3ccc(Cl)cc3C(=O)O)cc2)cc1
63 | 0.59 µM | O=C(Nc1ccc2c(c1)CNC2)c1cc(Br)cc2[nH]c(C3CCOCC3)nc12
64 | > 0.782 µM | CS(=O)(=O)c1ccc(N2CCN(C(=O)C3CCN(c4ccc(C=O)cc4)CC3)CC2)c([N+](=O)[O-])c1
65 | 3.94 µM | O=C(Nc1ccc2c(c1)CNC2)c1cccc(O)c1
66 | 35.3 µM | CN1C(=O)[C@H](c2cc(Cl)cc(NC(=O)OCc3ccccc3)c2)N(c2cccc(-c3nn[nH]n3)c2)C1=O
67 | 21.1 µM | NCc1cccc(NC(=O)c2cc(OCc3ccccc3)ccc2CNC(=O)OCc2ccccc2)c1
68 | 49.4 µM | O=Cc1ccc(N2CCC(C(=O)N3CCN(c4cccc(O)c4)CC3)CC2)cc1
69 | 2.06 µM | O=C(Cn1sc2ccccc2c1=O)Nc1cccc(OCc2cn(CC(=O)Nc3ccccc3Oc3ccccc3)nn2)c1
70 | 3.67 µM | O=C(O)c1cc(Oc2ccc(F)cc2)c(F)cc1NS(=O)(=O)c1ccc(Oc2ccccc2Cl)cc1
71 | 0.114 µM | NCc1cc(Cl)cc(C(=O)Nc2ccc3c(c2)CNC3)c1
72 | 78.8 µM | COc1cc(NC(=O)OCc2ccccc2)cc(C(=O)Nc2cccc(CN)c2)c1
73 | 0.135 µM | O=C(Nc1ccc2c(c1)CNC2)c1cc(F)cc2[nH]c(CC[C@H]3CCCOC3)nc12
74 | 0.104 µM | Cn1ccc(-c2cc(F)cc(C(=O)Nc3ccc4c(c3)CNC4)c2)cc1=O
